Test results as given in PubChem BioAssay (NCI).
“And” between values parts separate entries of the source, which are not always exact repeats. Identical values can stand only once.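 Exposure lasted 48 hours, with cells grown in 96-well plates and compounds tested at five concentrations. GI50 is the concentration that inhibits growth by half. Definition used: TGI = concentration required for complete inhibition of growth.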

Assays:
Test in all cases: NCI tumour cell line growth inhibition, 48 h
[1] = system: OVCAR-8 ovarian
[2] = system: SF-268 CNS
[3] = system: SN12C renal
[4] = system: RXF 393 renal
[5] = system: NCI-H23 lung
[6] = system: HOP-92 NSCLC
[7] = system: UACC-257 melanoma
[8] = system: U251 CNS
[9] = system: UACC-62 melanoma
[10] = system: 786-0 renal

Compound	GI50 [1]	TGI [1]	GI50 [2]	TGI [2]	GI50 [3]	TGI [3]	GI50 [4]	TGI [4]	GI50 [5]	TGI [5]	GI50 [6]	TGI [6]	GI50 [7]	TGI [7]	GI50 [8]	TGI [8]	GI50 [9]	TGI [9]	GI50 [10]	TGI [10]
COc1ccc(C(=O)/C=C/c2cc(-c3ccc4c(c3)OCO4)n[nH]2)cc1OC	2.15 µM	5.82 µM	2.53 µM	7.61 µM	3.25 µM	13.6 µM	2.42 µM	5.39 µM	4.12 µM	19.6 µM	2.16 µM	8.11 µM	7.06 µM	22.1 µM	1.58 µM	5.37 µM	4.1 µM	14.8 µM	3.12 µM	11.4 µM
Cc1ccc2nc3c(n2c1)C(=O)C(=O)c1ccccc1-3	0.238 µM	0.655 µM	0.4 µM	4.01 µM	0.153 µM	0.303 µM	0.227 µM	10.2 µM	0.217 µM	0.576 µM	0.71 µM	2.17 µM	0.146 µM	0.382 µM	0.176 µM	0.419 µM	0.152 µM	0.324 µM	0.527 µM	1.15 µM
CCCCCCCCCCC[C@@H](C[C@H]1OC(=O)[C@H]1CCCCCC)OC(=O)[C@@H](CC(C)C)NC=O	2.5 µM	15.7 µM	2.31 µM	21.9 µM	2.42 µM	12.2 µM	1.71 µM	16.8 µM	7.19 µM	67.4 µM	1.55 µM	16.1 µM	38.4 µM	> 100 µM	2.83 µM	17.2 µM	4.95 µM	25.2 µM	2.42 µM	18.7 µM
CNC(=O)c1cc(Oc2ccc3nc(N[C@@H]4CCCC[C@H]4O)sc3c2)ccn1	69.4 µM	> 100 µM	68 µM	> 100 µM	> 100 µM	> 100 µM	> 100 µM	> 100 µM	59.3 µM	> 100 µM	31.9 µM	> 100 µM	37.2 µM	> 100 µM	50.1 µM	> 100 µM	49.9 µM	> 100 µM	> 90.9 µM	> 100 µM
CC[C@H]1CN(C)[C@H]2Cc3c([nH]c4ccccc34)C(=O)C[C@H]1C2C(=O)OC (some centres not stated)		> 100 µM		> 100 µM		> 100 µM		> 100 µM		> 100 µM		> 100 µM		> 100 µM		> 100 µM		> 100 µM		> 100 µM
O=C(c1nn(-c2ccc(Cl)cc2)cc1O)n1nc(C(F)(F)F)cc1-c1ccccc1	1.87 µM	> 100 µM	1.8 µM	> 100 µM	3.57 µM	> 100 µM	0.687 µM	> 76.1 µM	5.49 µM	> 100 µM	1.67 µM	> 21.4 µM	2.25 µM	18.2 µM	2.65 µM	> 100 µM	2.12 µM	> 71.1 µM	6.39 µM	> 60.8 µM
OCCn1cc(-c2cnc3nnn(Cc4ccc5ncccc5c4)c3n2)cn1	> 100 µM	> 100 µM	> 100 µM	> 100 µM	> 100 µM	> 100 µM	> 100 µM	> 100 µM	> 100 µM	> 100 µM	13 µM	> 100 µM	> 100 µM	> 100 µM	> 100 µM	> 100 µM	> 100 µM	> 100 µM	> 100 µM	> 100 µM
Fc1cccc(Cl)c1Cn1c(-c2c(F)cccc2Cl)nc2ccccc21	17.3 µM	37.8 µM	15 µM	32.6 µM	15.7 µM	30.8 µM	19.7 µM	43.6 µM	31.2 µM	> 100 µM	13.9 µM	38.5 µM	12.9 µM	28.6 µM	19.9 µM	47.1 µM	12.8 µM	29.8 µM	21 µM	42.6 µM
O=C1/C(=C/c2ccc(Cl)cc2)CCC1CN1CCOCC1 (configuration not stated)		17.2 µM		45.9 µM		8.9 µM		11.2 µM		20.9 µM		16.1 µM		21.8 µM		40.2 µM		15.8 µM		6.2 µM
CCOC(=O)c1ccc(N(C=O)CCC(=O)CCl)cc1	0.0998 µM	11.3 µM	0.411 µM	4.95 µM	0.217 µM	4.27 µM	0.26 µM	4.49 µM	0.483 µM	7.81 µM	0.064 µM	0.794 µM	1.5 µM	8.33 µM	0.342 µM	10.8 µM	0.524 µM	3.69 µM	0.333 µM	4.08 µM
COc1cc(-c2nc(-c3ccc(-c4nc5ccc(F)cc5[nH]4)cc3)no2)cc(OC)c1OC	2.36 µM	7.61 µM	3.99 µM	32.4 µM	3.59 µM	38.3 µM	1.9 µM	5.44 µM	2.5 µM	8.35 µM	1.76 µM	13.9 µM	3.7 µM	14.8 µM	3.03 µM	28.8 µM	2.35 µM	6.61 µM	3.61 µM	17.9 µM
O=C1CCSC(=S)N1c1ccc(Br)c(Cl)c1		92.1 µM		44.2 µM		> 100 µM		50.8 µM		> 100 µM		69.1 µM		37.8 µM		63.7 µM		58.7 µM		62 µM
COc1ccc(C2=N[C@@H](c3ccc(Cl)cc3)[C@@H](c3ccc(Cl)cc3)N2C(=O)N2CCNC(=O)C2)c(OC(C)C)c1	15.2 µM and 15.1 µM and 14.8 µM	31.1 µM and 30.9 µM and 30.1 µM	13.9 µM and 13.1 µM and 14 µM	28 µM and 26.5 µM and 27.9 µM	15.6 µM and 14.9 µM and 14.1 µM	34 µM and 29.9 µM and 28.7 µM	12.3 µM and 12.7 µM and 13.9 µM	25.4 µM and 25.9 µM and 27.8 µM	16 µM and 15.8 µM and 16.4 µM	32.1 µM and 33.2 µM and 34.8 µM	14.9 µM and 10.7 µM	31.9 µM and 23.9 µM and 24.8 µM	13.2 µM and 4.26 µM and 3.98 µM	26.5 µM and 19.3 µM and 18.3 µM	13.7 µM and 14.8 µM and 16.2 µM	27.2 µM and 29.5 µM and 31.6 µM	11.3 µM and 2.76 µM and 1.38 µM	25.3 µM and 19.2 µM and 16.6 µM	14.9 µM and 16.6 µM and 17.3 µM	29 µM and 32.6 µM and 34 µM
COc1ccc(-n2cc(-c3cc(OC)c(OC)c(OC)c3)[nH]c2=S)cc1Cl	50.2 µM	> 100 µM	18.3 µM	50.3 µM	46.7 µM	> 100 µM	17.6 µM	> 100 µM	46.4 µM	> 100 µM	14 µM	33 µM	> 100 µM	> 100 µM	20 µM	50.7 µM	> 100 µM	> 100 µM	23.4 µM	54.5 µM
Clc1ccc2nc(Cl)c3ccccc3c2c1	11.8 µM	> 100 µM	17.2 µM	> 100 µM	28 µM	> 100 µM	9.15 µM	30.4 µM	74.9 µM	> 100 µM	11.9 µM	29.7 µM	> 100 µM	> 100 µM	3.21 µM	19.9 µM	44.1 µM	> 100 µM	9.32 µM	60.8 µM
COc1cc(C(=O)O/N=C(\N)Cc2cccc3ccccc23)cc(OC)c1OC	11.5 µM	43.8 µM	7.55 µM	22.9 µM	17.4 µM	42.3 µM	10.7 µM	23.9 µM	11.4 µM	29.8 µM	4.59 µM	17 µM	15.2 µM	29.2 µM	12 µM	25.8 µM	2.49 µM	6.73 µM	13.5 µM	26.7 µM
CN(C)CCNC(=O)c1c2ccccc2cc2ccccc12		> 100 µM		> 100 µM		> 100 µM		99 µM		> 100 µM		> 100 µM		34.4 µM		> 100 µM		53.4 µM		> 100 µM
Oc1ccc(Oc2cnc3cc(Cl)ccc3n2)cc1	> 100 µM	> 100 µM	14.8 µM	> 100 µM	34.2 µM	> 100 µM	46.6 µM	> 100 µM	52.8 µM	> 100 µM	37.3 µM	> 100 µM	65.7 µM	> 100 µM	54.7 µM	> 100 µM	40.9 µM	> 100 µM	31 µM	> 100 µM
O=C(Cn1c(C(=O)c2ccc(Cl)cc2)nc(-c2ccccc2)c1-c1ccccc1)c1ccc(Cl)cc1	> 100 µM	> 100 µM	> 100 µM	> 100 µM	> 100 µM	> 100 µM	> 100 µM	> 100 µM	> 100 µM	> 100 µM	23.9 µM	> 100 µM	> 100 µM	> 100 µM	> 100 µM	> 100 µM	> 100 µM	> 100 µM	> 100 µM	> 100 µM
O=c1c2c(=NCCN3CCCC3)cc3c(=O)n(CCCN4CCOCC4)c(=O)c4ccc(c(O)n1CCCN1CCOCC1)c2c4-3	0.1 µM	> 32.8 µM	0.165 µM	0.751 µM	0.138 µM	4.54 µM	0.104 µM	0.266 µM	0.118 µM	0.627 µM	0.129 µM	0.607 µM	0.707 µM	3.76 µM	0.11 µM	1.95 µM	0.35 µM	0.966 µM	0.145 µM	1.1 µM
O=C1/C(=C/c2ccc(Cl)cc2)CN(C(=O)CCN2CCC(=NO)CC2)C/C1=C\c1ccc(Cl)cc1	0.823 µM	2.62 µM	0.942 µM	2.98 µM	0.637 µM	1.68 µM	1.46 µM	2.87 µM	1.13 µM	2.63 µM	1.64 µM	3.54 µM	1.67 µM	3.43 µM	0.53 µM	1.28 µM	0.585 µM	1.72 µM	0.786 µM	2.12 µM
COc1cc(OC)c(F)c(COc2cnc(Nc3cnn(CCO)c3)nc2)c1F	2.24 µM	> 100 µM	1.03 µM	> 64.9 µM	1.59 µM	> 100 µM	0.188 µM	2.44 µM	1.86 µM	> 100 µM	0.767 µM	5.4 µM	1.45 µM	> 100 µM	0.528 µM	> 30.8 µM	0.518 µM	> 62 µM	1.75 µM	> 100 µM
c1ccc2cc(C[n+]3ccn(Cc4ccc5ccccc5n4)c3)ccc2c1	0.754 µM and 3.72 µM	10.5 µM and 15 µM	0.434 µM and 3.79 µM	11.3 µM and 18.3 µM	0.347 µM and 2.82 µM	6.15 µM and 11 µM		3.23 µM and 19.7 µM	0.311 µM and 2.7 µM	3.23 µM and 14.6 µM	0.184 µM and 1.66 µM		0.28 µM and 2.7 µM		0.406 µM and 3.19 µM	12.4 µM and 15.2 µM	0.374 µM and 1.91 µM	1.5 µM and 5.94 µM	2.73 µM and 10.6 µM	13 µM and 24.8 µM
O=C1CC(c2ccsc2)c2snc(-c3ccc(Cl)cc3)c2N1 (configuration not stated)	3.01 µM	> 100 µM	4.87 µM	> 100 µM	3.77 µM	> 100 µM	3.49 µM	50.8 µM	1.76 µM	> 100 µM	3.87 µM	81.8 µM	4.08 µM	> 100 µM	1.75 µM	> 100 µM	0.859 µM	> 100 µM	7.65 µM	> 100 µM
COc1ccc(N=Nc2c(-c3ccccc3)nn(C(=O)CC(=O)Nc3ccccc3Cl)c2-c2ccccc2)cc1		> 100 µM		> 100 µM		> 100 µM		> 100 µM		> 100 µM		> 100 µM		> 100 µM		> 100 µM		> 100 µM		> 100 µM
COc1ccc2c(c1)[nH]c(=O)c1c3cc(OC)c(OC)cc3cn21	0.0193 µM	14.9 µM	< 0.01 µM	1.45 µM	0.0124 µM	15.2 µM	< 0.01 µM	1.89 µM	< 0.0173 µM	16.4 µM	0.0272 µM	17.4 µM	14.7 µM	29.5 µM	< 0.01 µM	1.35 µM	< 0.01 µM	21 µM	0.0386 µM	15.3 µM
